Assay [1] addresses human stimulator of interferon genes (STING) (139-379) (Homo sapiens (Human), UniProt Q86WV6). The experiment in a line: Microliter plate-based TR-FRET competition-binding assay for binders of STING. The following applies: Alexa488 probe, read-out: FRET_IC50. The procedure: This is the competition-binding assay to test the compounds' potency to the C-terminal Domain (CTD) and ligand-binding domain of human stimulator of interferon genes (STING). STING (139-379, Q86WV6, http://www.uniprot.org/uniprot) recombinant protein (in 20 mM Tris, 150 mM NaCl, pH 8.0, and expression in Escherichia coli (E. coli) BL21 (DE3)) with a C-terminal flag-tag was employed for the assay. When Alexa-488 labeled active site probe (refer to patent WO2017/175156 A1) bounds to STING (139-379), it accepts the 485 nm emission from Tb-M2-Flag-STING and results in an increase in fluorescence at 520 nm. Compounds that compete for the probe-binding site will reduce 520 nm signal. The assay was run in proxiplate-384 plus (PerkinElmer, cat: 60150300) containing of 2.5 nM STING, 2.5 nM M2-Tb (Cisbio, 61FG2TLA, Lot: 17 A) and 250 nM Alexa488 probe. Plates were centrifuged for 1 min at 1000 rpm, incubated for 30 min at room temperature, and then measured the dual fluorescence emission at 520 nm/485 nM following 320 nm laser excitation on an Envision plate reader (Perkin-Elmer). The compounds' effect on the STING binding is detected by measuring ratiometric fluorescence from time-resolved FRET. The percentage of inhibition of at each compound concentration is calculated on the basis of their changes of TR-FRET efficiency relative to the change of TR-FRET caused by positive control 2′3′cGAMP (Sigma, cat: SML1229).
A general note: TR-FRET usually uses a lanthanide donor and a delayed reading to cut background.

Another assay concerns STING (IFN-β in hPBMC). The experiment in a line: hPBMC cytokine functional assay (IFN-β decrease after Baculovirus stimulation). It counts as cell-based. The following applies: Homo sapiens, Baculovirus MOI 40, 24 hours, read-out: hPBMC_IC50. The procedure:
The inhibition of STING by compounds could be measured by the decrease of IFN-β in hPBMC, which is stimulated by a double stranded DNA virus Baculoviurs (Purchased from Genescript, pCMV-Dest Vector virus generation P2 BV stock virus, Sf-900 II medium with 5% FBS, Lot C9835DK230-2/P4DL001). Frozen hPBMC cells (purchased from Stemcell Technologies, cat number is 70025, Lot 191070803C) were thawed at 37° C. water bath, then cells were re-suspended in 50 ml tube using 20 ml Cell culture medium, and then centrifuged for 5 min at 2000 rpm before the supernatant was removed carefully. The cells were re-suspended in culture medium (RPMI-1640 with 1.5 g/L NaHCO3, 4.5 g/L glucose, 10 mM HEPES and 1 mM Na-pyruvate, 10% HI-FBS); 65 μL of the cell suspension was dispensed into 384 well plate (70K cells/well) by Multidrop Combi with at least 3 hours incubation at 37° C., 5% CO2 cell incubator.
Then 4 μL of compound solution per well (final 0.5% DMSO) was transferred by Agilent Bravo followed by infection with 11 μL of Baculovirus at a final MOI of 40. The level of IFN-β secreted in the supernatant of hPBMC was determined after 24 hours of incubation at 37° C. cell incubator by human IFN-β HTRF assay (Cisbio, cat: 62HIFNBPEH) following the manufacture's instruction. CellTiter-Glo kit (Promega, cat: G7573) was applied for the cell viability evaluation using Envision.

pIC50: −log10 of the molar value.

human stimulator of interferon genes (STING) (139-379), sequence (Q86WV6 139-379): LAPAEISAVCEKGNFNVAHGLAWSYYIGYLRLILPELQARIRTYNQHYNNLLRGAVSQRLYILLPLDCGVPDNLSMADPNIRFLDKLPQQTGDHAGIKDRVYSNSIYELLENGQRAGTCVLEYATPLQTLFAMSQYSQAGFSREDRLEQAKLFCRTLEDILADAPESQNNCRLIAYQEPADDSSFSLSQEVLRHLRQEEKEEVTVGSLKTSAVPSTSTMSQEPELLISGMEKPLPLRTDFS

For the molecule `Cn1nc2cccc3c2c1CCCN(CCN1CCOCC1)C(=O)[C@@H]1C[C@@H](CN1c1ncnc2c1cnn2-c1ccc(F)cc1F)Oc1cccc-3c1` [Example 23, (8S,11S)-10-[1-(2,4-difluorophenyl)pyrazolo[3,4-d]pyrimidin-4-yl]-18-methyl-13-(2-morpholinoethyl)-7-oxa-10,13,18,19-tetrazapentacyclo[15.6.1.1^2,6.1^8,11.0^20,24]hexacosa-1(23),2(26),3,5,17(24),19,21-heptaen-12-one], the pIC50 is 8.80 in assay [1] and 6.55 in the assay on STING (IFN-β in hPBMC).

As to `CN1CCCc2c3c(cccc3nn2C)-c2ccnc(n2)N[C@H]2C[C@@H](C1=O)N(c1nccn3c(-c4ccc(F)cc4F)ncc13)C2` [Example 5, (8S,11S)-10-[3-(2,4-difluorophenyl)imidazo[1,5-a]pyrazin-8-yl]-13,18-dimethyl-5,7,10,13,18,19,26-heptazapentacyclo[15.6.1.1^2,6.1^8,11.0^20,24]hexacosa-1(23),2,4,6(26),17(24),19,21-heptaen-12-one], the results for the pIC50 (in assay [1]; in the assay on STING (IFN-β in hPBMC)) were 8.42 and 6.51, respectively.

On to `Cn1nc2cccc3c2c1CCCNC(=O)[C@@H]1C[C@@H](CN1c1ncnc2c1cnn2-c1ccc(F)cc1F)Oc1cccc-3c1` [Example 1, (8S,11S)-10-[1-(2,4-difluorophenyl)pyrazolo[3,4-d]pyrimidin-4-yl]-18-methyl-7-oxa-10,13,18,19-tetrazapentacyclo[15.6.1.1^2,6.1^8,11.0^20,24]hexacosa-1(23),2(26),3,5,17(24),19,21-heptaen-12-one], for which the pIC50 in assay [1] is 9.10; with STING (IFN-β in hPBMC), 6.31.

For `CN1CCCc2c3c(cccc3nn2C)-c2cccc(c2)O[C@H]2C[C@@H](C1=O)N(c1ncnc3c1cnn3-c1ccc(F)cc1F)C2` [Example 2, (8S,11S)-10-[1-(2,4-difluorophenyl)pyrazolo[3,4-d]pyrimidin-4-yl]-13,18-dimethyl-7-oxa-10,13,18,19-tetrazapentacyclo[15.6.1.1^2,6.1^8,11.0^20,24]hexacosa-1(23),2(26),3,5,17(24),19,21-heptaen-12-one], the pIC50 in assay [1] was 8.57; in the assay on STING (IFN-β in hPBMC), 6.23.

In the case of `Cn1nc2cccc3c2c1CCCN(CC1CC1)C(=O)[C@@H]1C[C@@H](CN1c1ncnc2c1cnn2-c1ccc(F)cc1F)Oc1cccc-3c1` [Example 15, (8S,11S)-13-(cyclopropylmethyl)-10-[1-(2,4-difluorophenyl)pyrazolo[3,4-d]pyrimidin-4-yl]-18-methyl-7-oxa-10,13,18,19-tetrazapentacyclo[15.6.1.1^2,6.1^8,11.0^20,24]hexacosa-1(23),2(26),3,5,17(24),19,21-heptaen-12-one], the results for the pIC50 (in assay [1]; in the assay on STING (IFN-β in hPBMC)) were 8.80 and 6.85, respectively.

On to `C=CCN1CCCc2c3c(cccc3nn2C)-c2cccc(c2)O[C@H]2C[C@@H](C1=O)N(c1ncnc3c1cnn3-c1ccc(F)cc1F)C2` [Example 20, (8S,11S)-13-allyl-10-[1-(2,4-difluorophenyl)pyrazolo[3,4-d]pyrimidin-4-yl]-18-methyl-7-oxa-10,13,18,19-tetrazapentacyclo[15.6.1.1^2,6.1^8,11.0^20,24]hexacosa-1(23),2(26),3,5,17(24),19,21-heptaen-12-one], for which the figures for the pIC50 (in assay [1]; in the assay with STING (IFN-β in hPBMC)) were 8.72 and 6.46, respectively.

`Cn1nc2cccc3c2c1CCCN(CCCn1ccnc1)C(=O)[C@@H]1C[C@@H](CN1c1ncnc2c1cnn2-c1ccc(F)cc1F)Oc1cccc-3c1` [Example 38, (8S,11S)-10-[1-(2,4-difluorophenyl)pyrazolo[3,4-d]pyrimidin-4-yl]-13-(3-imidazol-1-ylpropyl)-18-methyl-7-oxa-10,13,18,19-tetrazapentacyclo[15.6.1.1^2,6.1^8,11.0^20,24]hexacosa-1(23),2(26),3,5,17(24),19,21-heptaen-12-one]: the pIC50 in assay [1] was 9.05; with STING (IFN-β in hPBMC) it was 6.33.

The values above are taken from patent US20260070927A1, “INDAZOLE MACROCYCLES FOR THE TREATMENT OF AUTOIMMUNE DISEASE” (Hoffmann-La Roche Inc., priority 2022, published 2026).
